# Substitutions are numbered along the chain they refer to.
# Columns and labels:
# Type in all cases: cell-based
# Settings in all cases: 24 hours after administration, DC50 = concentration needed for 50% target protein degradation
# androgen receptor (AR) [1] = molecular target: T1, androgen receptor (AR) (Homo sapiens, UniProt P10275, T878A); experiment: AR degradation activity in LNCAP cells (Western blot)
# T1 construct: endogenous in cells; host or cells: LNCAP
# T1 sequence (P10275 1-920 T878A): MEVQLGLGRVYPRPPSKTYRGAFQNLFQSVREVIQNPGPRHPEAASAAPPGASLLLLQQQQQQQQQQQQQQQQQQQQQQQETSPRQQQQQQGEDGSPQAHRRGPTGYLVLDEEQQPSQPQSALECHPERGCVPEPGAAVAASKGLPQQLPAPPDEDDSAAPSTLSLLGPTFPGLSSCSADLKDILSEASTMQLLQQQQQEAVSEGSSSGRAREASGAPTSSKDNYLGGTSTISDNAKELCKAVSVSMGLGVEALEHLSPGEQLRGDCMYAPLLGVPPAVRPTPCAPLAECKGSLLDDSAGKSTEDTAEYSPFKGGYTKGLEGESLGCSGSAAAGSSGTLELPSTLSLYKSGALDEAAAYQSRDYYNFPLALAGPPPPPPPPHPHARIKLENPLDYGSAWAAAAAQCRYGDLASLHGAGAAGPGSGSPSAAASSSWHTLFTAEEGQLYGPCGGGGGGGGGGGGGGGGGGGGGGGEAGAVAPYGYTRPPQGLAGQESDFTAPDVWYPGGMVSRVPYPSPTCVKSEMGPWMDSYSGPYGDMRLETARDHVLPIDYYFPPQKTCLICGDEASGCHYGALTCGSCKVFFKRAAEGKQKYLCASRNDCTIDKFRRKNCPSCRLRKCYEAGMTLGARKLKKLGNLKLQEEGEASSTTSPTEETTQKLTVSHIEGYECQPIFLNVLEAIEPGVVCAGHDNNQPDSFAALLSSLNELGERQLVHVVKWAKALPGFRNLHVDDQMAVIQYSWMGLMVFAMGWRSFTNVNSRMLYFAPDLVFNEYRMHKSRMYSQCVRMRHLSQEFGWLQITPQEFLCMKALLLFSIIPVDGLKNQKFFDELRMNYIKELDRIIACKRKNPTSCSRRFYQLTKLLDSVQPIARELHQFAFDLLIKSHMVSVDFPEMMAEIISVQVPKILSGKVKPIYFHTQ
# Procedure: (§1) LNCAP, VCAP and 22Rv1 cells were plated in 24-well plates at 1.5×10E5 cells/well in the RPMI growth medium containing 10% FBS and 1% Penicillin Streptomycin, and then incubated at 37° C. overnight. The following day, the test compound was administered to the cells by using 1000× compound stock solution prepared in DMSO at various concentrations. After administration of the compound, the cells were then incubated at 37° C. for 24 hours. Upon completion, the cells were washed with PBS and protein was collected in Laemmli sample buffer (1×; VWR International). Proteins in cell lysate were separated by SDS-PAGE and transferred to Odyssey nitrocellulose membranes (Licor) with Iblot® dry blotting transfer system (ThermoFisher). Nonspecific binding was blocked by incubating membranes with Intercept Blocking Buffer (Licor) for 1 hour at room temperature with gentle shaking. The membranes were then incubated overnight at 4° C. with Primary antibodies rabbit anti-AR (1:1,000, Cell Signaling, 5153) and mouse anti-GAPDH (1:5,000, Santa Cruz Biotechnology, sc-47724) diluted in Intercept Blocking Buffer containing 0.1% Tween 20. After washing 3 times with TBS-T, the membranes were incubated with IRDye® 800CW goat anti-mouse IgG (1:20,000, Licor) or IRDye® 800CW goat anti-rabbit IgG (1:20,000, Licor) for 1 hour. After TBS-T washes, membranes were rinsed in TBS and scanned on Odyssey® CLx Imaging System (Licor). The bands were quantified using Image Studio™ Software (Licor).
# (§2) Table 4 summarizes the androgen receptor (AR) degradative activity of exemplary compounds in LNCAP, VCAP and 22Rv1 cell lines 24 hours after administration. DC50: compound concentration needed for 50% target protein degradation.
# androgen receptor (AR) [2] = experiment: AR degradation activity in 22Rv1 cells (Western blot)
# Procedure: as §1, §2
# androgen receptor (AR) [3] = molecular target: T2, androgen receptor (AR) (Homo sapiens, UniProt P10275); experiment: AR degradation activity in VCAP cells (Western blot)
# T2 construct: endogenous in cells; host or cells: VCAP
# T2 sequence (P10275 1-920): T1 sequence (P10275 1-920 T878A) with A878T
# Procedure: as §1, §2
DC50 (androgen receptor (AR) [1]) [nM],DC50 (androgen receptor (AR) [2]) [nM],DC50 (androgen receptor (AR) [3]) [nM],Structure (SMILES)
< 10,< 10,< 10,"N#Cc1ccc(O[C@H]2CC[C@H](NC(=O)c3ccc(N4CCC(CN5CCN(c6ccc7c(c6)CN([C@H]6CCC(=O)NC6=O)C7=O)CC5)CC4)c(F)c3)CC2)c2cccnc12 [Compound 3-31, trans-N-(4-((8-cyanoquinolin-5-yl)oxy)cyclohexyl)-4-(4-((4-(2-((S)-2,6-dioxopiperidin-3-yl)-1-oxoisoindolin-5-yl)piperazin-1-yl)methyl)piperidin-1-yl)-3-fluorobenzamide]"
< 10,< 10,< 10,"N#Cc1ccc(O[C@H]2CC[C@H](NC(=O)c3ccc(N4CCC(CN5CCN(c6ccc7c(c6)CN([C@H]6CCC(=O)NC6=O)C7=O)CC5)CC4)nc3)CC2)c2cccnc12 [Compound 3-29, trans-N-(4-((8-cyanoquinolin-5-yl)oxy)cyclohexyl)-6-(4-((4-(2-((S)-2,6-dioxopiperidin-3-yl)-1-oxoisoindolin-5-yl)piperazin-1-yl)methyl)piperidin-1-yl)nicotinamide]"
